Reference: EPA's ToxValDB 9.5 (doi:10.2903/j.efsa.2010.1645)
≈ marks a conversion by molar mass, not a printed value.

Experiments:
[1] = test system: Bibionidae; conditions: chronic/long-term; duration: 28 days; development
[2] = test system: Tagia sp.
[3] = test system: Folsomia candida; conditions: chronic/long-term; duration: 28 days; reproduction
[4] = test system: Daphnia magna; conditions: chronic/long-term; duration: 21 days; reproduction
[5] = test system: Pimephales promelas; conditions: chronic/long-term; duration: 35 days; growth
[6] = test system: Glycine sp.; conditions: chronic/long-term; seedling emergence
[7] = test system: Apis mellifera; conditions: acute, duration: 48 hours, mortality
[8] = test system: Oncorhynchus mykiss; conditions: acute; duration: 96 hours; mortality
[9] = test system: Rattus norvegicus
[10] = test system: Typhlodromus pyri; test: LR50; higher = less toxic; conditions: acute; duration: 7 days; mortality

Work on CC(C)[C@@H](Nc1ccc(C(F)(F)F)cc1Cl)C(=O)OC(C#N)c1cccc(Oc2ccccc2)c1 (stereo not given in full) [tau-Fluvalinate] yielded an NOEC [1] of 0.00024 mg/L, an LC50 ([2]; acute, duration: 14 days, mortality) of over 1000 mg/kg and an NOEC ([2]; chronic/long-term, duration: 56 days, reproduction) of over 2.88 mg/kg. It also gave an NOEC [3] of 9.6 mg/kg, an NOEC [4] of 2.1e-05 mg/L and an NOEC [5] of 6.4e-05 mg/L. The NOEC [6] was under 6.25 g/ha, the LD50 ([7]; dermal) was 12 µg/piece and the LD50 ([7]; oral, unspecified) was 12.6 µg/piece. The LC50 [8] was 7.94 ng/mL (≈ 0.0158 µM), the NOAEL ([9]; chronic, duration: 2 years, body weight) was 0.5 mg/kg-day and the NOAEL ([9]; developmental, development) was 5 mg/kg-day. It also gave an NOAEL ([9]; short-term, duration: 28 days, clinical signs) of 6 mg/kg-day, an NOAEL ([9]; subchronic, duration: 90 days, oral, diet, body weight) of 1 mg/kg-day and an LR50 [10] of 0.049 g/ha.
